In paper PMC5218480 (PLoS ONE, 2017):

System: MV-4-11 cells
Experiment: Gene expression microarray analysis (Affymetrix PrimeView) and GSEA
Format: cell-based, human
Set-up: RFU PODN (11730768_x_at) / Fold change /veh PODN (11730768_x_at) / RFU LINC00158 (11744669_a_at) / Fold change /veh LINC00158 (11744669_a_at) / RFU DUSP10 (11751237_a_at) / Fold change /veh DUSP10 (11751237_a_at) / RFU ID3 (11757404_x_at) / Fold change /veh ID3 (11757404_x_at) / RFU PLEKHG5 (11737974_s_at) / Fold change /veh PLEKHG5 (11737974_s_at) / RFU LRRC4B (11730491_at) / Fold change /veh LRRC4B (11730491_at) / RFU GIMAP4 (11747438_a_at) / Fold change /veh GIMAP4 (11747438_a_at) / RFU KRT8 (11758183_x_at) / Fold change /veh KRT8 (11758183_x_at) / RFU CNN1 (11734310_a_at) / Fold change /veh CNN1 (11734310_a_at) / RFU VPS37D (11726825_at) / Fold change /veh VPS37D (11726825_at) / RFU C10orf10 (11716522_x_at) / Fold change /veh C10orf10 (11716522_x_at) / RFU KIR2DL2 /// KIR2DL4 /// KIR2DL5A /// KIR2DL5B /// KIR2DS1 /// KIR2DS2 /// KIR2DS3 /// KIR2DS4 /// KIR3DL3 /// KIR3DL3 /// KIR3DS1 (11738374_at) / Fold change /veh KIR2DL2 /// KIR2DL4 /// KIR2DL5A /// KIR2DL5B /// KIR2DS1 /// KIR2DS2 /// KIR2DS3 /// KIR2DS4 /// KIR3DL3 /// KIR3DL3 /// KIR3DS1 (11738374_at) / RFU C1QL1 (11718748_at) / Fold change /veh C1QL1 (11718748_at) / RFU TMPRSS4 (11747572_a_at) / Fold change /veh TMPRSS4 (11747572_a_at) / RFU HAMP (11756126_x_at) / Fold change /veh HAMP (11756126_x_at) / RFU RNFT2 (11725882_a_at) / Fold change /veh RNFT2 (11725882_a_at) / RFU NR4A2 (11747474_a_at) / Fold change /veh NR4A2 (11747474_a_at) / RFU ABCC12 (11746883_a_at) / Fold change /veh ABCC12 (11746883_a_at) / RFU TMEM136 (11760407_x_at) / Fold change /veh TMEM136 (11760407_x_at) / RFU CLDN22 /// WWC2 (11732394_at) / Fold change /veh CLDN22 /// WWC2 (11732394_at) / RFU HLA-DPB1 (11760878_x_at) / Fold change /veh HLA-DPB1 (11760878_x_at) / RFU SPINT1 (11716480_a_at) / Fold change /veh SPINT1 (11716480_a_at) / RFU GAP43 (11754022_s_at) / Fold change /veh GAP43 (11754022_s_at) / RFU A4GNT (11735810_at) / Fold change /veh A4GNT (11735810_at) / RFU PRB3 (11715151_x_at) / Fold change /veh PRB3 (11715151_x_at) / RFU TUBB4B (11761932_at) / Fold change /veh TUBB4B (11761932_at) / RFU CAPN14 (11732068_a_at) / Fold change /veh CAPN14 (11732068_a_at) / RFU TMCC2 (11721928_a_at) / Fold change /veh TMCC2 (11721928_a_at) / RFU IRGQ (11745062_a_at) / Fold change /veh IRGQ (11745062_a_at) / RFU FAM174B (11720279_a_at) / Fold change /veh FAM174B (11720279_a_at) / RFU TMPRSS4 (11748680_a_at) / Fold change /veh TMPRSS4 (11748680_a_at) / RFU FAM212B (11763350_a_at) / Fold change /veh FAM212B (11763350_a_at) / RFU PLEKHG5 (11743358_a_at) / Fold change /veh PLEKHG5 (11743358_a_at) / RFU ZSCAN30 (11745921_a_at) / Fold change /veh ZSCAN30 (11745921_a_at) / RFU CMKLR1 (11741424_a_at) / Fold change /veh CMKLR1 (11741424_a_at) / RFU LOC101060620 /// MAPK8IP1 (11723275_at) / Fold change /veh LOC101060620 /// MAPK8IP1 (11723275_at) / RFU SPTSSB (11747773_x_at) / Fold change /veh SPTSSB (11747773_x_at) / RFU PRSS12 (11739890_at) / Fold change /veh PRSS12 (11739890_at) / RFU BIN1 (11741810_x_at) / Fold change /veh BIN1 (11741810_x_at) / RFU WNT11 (11732464_a_at) / Fold change /veh WNT11 (11732464_a_at) / RFU C10orf10 (11716521_a_at) / Fold change /veh C10orf10 (11716521_a_at) / RFU C5orf56 (11738089_at) / Fold change /veh C5orf56 (11738089_at) / RFU CYB561 (11721691_x_at) / Fold change /veh CYB561 (11721691_x_at) / RFU ANKRD19P (11752326_a_at) / Fold change /veh ANKRD19P (11752326_a_at) / RFU OR2T12 /// OR2T33 /// OR2T8 (11738714_s_at) / Fold change /veh OR2T12 /// OR2T33 /// OR2T8 (11738714_s_at) / RFU VCAN (11748164_a_at) / Fold change /veh VCAN (11748164_a_at) / RFU JSRP1 (11732532_at) / Fold change /veh JSRP1 (11732532_at) / RFU KRTAP10-11 (11738290_x_at) / Fold change /veh KRTAP10-11 (11738290_x_at) / RFU MYO3A (11730013_a_at) / Fold change /veh MYO3A (11730013_a_at) / RFU EBF3 (11725865_a_at) / Fold change /veh EBF3 (11725865_a_at) / RFU CAMK2N1 (11719241_x_at) / Fold change /veh CAMK2N1 (11719241_x_at) / RFU C5orf56 (11738088_a_at) / Fold change /veh C5orf56 (11738088_a_at) / RFU OLFML3 (11715873_a_at) / Fold change /veh OLFML3 (11715873_a_at) / RFU LOC100653217 /// NTM (11731650_a_at) / Fold change /veh LOC100653217 /// NTM (11731650_a_at) / RFU MAPK11 (11762145_a_at) / Fold change /veh MAPK11 (11762145_a_at) / RFU FIZ1 (11724087_x_at) / Fold change /veh FIZ1 (11724087_x_at) / RFU OASL (11726364_x_at) / Fold change /veh OASL (11726364_x_at) / RFU SOX15 (11748057_x_at) / Fold change /veh SOX15 (11748057_x_at) / RFU CD79A (11719716_a_at) / Fold change /veh CD79A (11719716_a_at) / RFU HIST1H1D (11736915_at) / Fold change /veh HIST1H1D (11736915_at) / RFU CASKIN2 (11723855_a_at) / Fold change /veh CASKIN2 (11723855_a_at) / RFU LOC730098 (11760151_x_at) / Fold change /veh LOC730098 (11760151_x_at) / RFU OR4N2 (11742367_at) / Fold change /veh OR4N2 (11742367_at) / RFU PRRT2 (11749266_a_at) / Fold change /veh PRRT2 (11749266_a_at) / RFU SNX32 (11753110_a_at) / Fold change /veh SNX32 (11753110_a_at) / RFU CDHR5 (11726645_a_at) / Fold change /veh CDHR5 (11726645_a_at) / RFU RCAN1 (11760418_a_at) / Fold change /veh RCAN1 (11760418_a_at) / RFU FAM167A (11723789_a_at) / Fold change /veh FAM167A (11723789_a_at) / RFU FAM26E (11764081_at) / Fold change /veh FAM26E (11764081_at) / RFU ISYNA1 (11749810_s_at) / Fold change /veh ISYNA1 (11749810_s_at) / RFU ACY1 (11761880_at) / Fold change /veh ACY1 (11761880_at) / RFU 11764098_at / Fold change /veh 11764098_at / RFU SAMD14 (11745864_x_at) / Fold change /veh SAMD14 (11745864_x_at) / RFU NPB (11741838_a_at) / Fold change /veh NPB (11741838_a_at) / RFU TMPRSS6 (11731388_a_at) / Fold change /veh TMPRSS6 (11731388_a_at) / RFU KRTAP10-2 (11738614_at) / Fold change /veh KRTAP10-2 (11738614_at) / RFU ARHGAP8 /// PRR5-ARHGAP8 (11727945_x_at) / Fold change /veh ARHGAP8 /// PRR5-ARHGAP8 (11727945_x_at) / RFU KRTAP5-7 /// NADSYN1 (11734609_at) / Fold change /veh KRTAP5-7 /// NADSYN1 (11734609_at) / RFU RASL12 (11751679_a_at) / Fold change /veh RASL12 (11751679_a_at) / RFU CDKN2B (11736163_a_at) / Fold change /veh CDKN2B (11736163_a_at) / RFU PRF1 (11729649_at) / Fold change /veh PRF1 (11729649_at) / RFU, ZNF638 /// ZNF638-IT1 / Fold change vs veh, ZNF638 /// ZNF638-IT1 / RFU, PANK3 / Fold change vs veh, PANK3 / RFU, SH3YL1 / Fold change vs veh, SH3YL1 / RFU, ZEB2 / Fold change vs veh, ZEB2 / RFU, NRIP1 / Fold change vs veh, NRIP1 / RFU, PTTG1IP / Fold change vs veh, PTTG1IP / RFU, CAPN2 / Fold change vs veh, CAPN2 / RFU, MED14 / Fold change vs veh, MED14 / RFU, SNORA58 / Fold change vs veh, SNORA58 / RFU, C1orf63 / Fold change vs veh, C1orf63 / RFU, LRRFIP1 / Fold change vs veh, LRRFIP1 / RFU, NDUFAF7 / Fold change vs veh, NDUFAF7 / RFU, SLC12A2 / Fold change vs veh, SLC12A2 / RFU, IBTK / Fold change vs veh, IBTK / RFU, ESF1 / Fold change vs veh, ESF1 / Fold change vs veh, TMEM50B / RFU, TAOK1 / Fold change vs veh, TAOK1 / RFU, ACBD3 / Fold change vs veh, ACBD3 / RFU, TMA16 / Fold change vs veh, TMA16 / RFU, RWDD3 / Fold change vs veh, RWDD3 / RFU, BCAT1 / Fold change vs veh, BCAT1 / RFU, EDEM3 / Fold change vs veh, EDEM3 / RFU, TMEM33 / Fold change vs veh, TMEM33 / RFU, WDR75 / Fold change vs veh, WDR75 / RFU, AHCTF1 / Fold change vs veh, AHCTF1 / RFU, TFRC / Fold change vs veh, TFRC / RFU, ZDHHC17 / Fold change vs veh, ZDHHC17 / RFU, NOM1 / Fold change vs veh, NOM1 / RFU, ARL8B / Fold change vs veh, ARL8B / RFU, ZBTB11 / Fold change vs veh, ZBTB11 / RFU, TAMM41 / Fold change vs veh, TAMM41 / RFU, KIAA1704 /// LOC100996395 / Fold change vs veh, KIAA1704 /// LOC100996395 / RFU, ING1 / Fold change vs veh, ING1 / RFU, TRMT61B / Fold change vs veh, TRMT61B / RFU, FUBP3 / Fold change vs veh, FUBP3 / RFU, TP53 / Fold change vs veh, TP53 / RFU, TNKS2 / Fold change vs veh, TNKS2 / RFU, ZFP14 / Fold change vs veh, ZFP14 / RFU, ACTR2 / Fold change vs veh, ACTR2 / RFU, PPP3R1 / Fold change vs veh, PPP3R1 / RFU, PIK3R1 / Fold change vs veh, PIK3R1 / RFU, HNRNPA1 / Fold change vs veh, HNRNPA1 / RFU, RNF170 / Fold change vs veh, RNF170 / RFU, ZNF28 / Fold change vs veh, ZNF28 / RFU, RNGTT / Fold change vs veh, RNGTT / RFU, OGT / Fold change vs veh, OGT / RFU, BRD1 / Fold change vs veh, BRD1 / RFU, MARS / Fold change vs veh, MARS / RFU, ZNF655 / Fold change vs veh, ZNF655 / RFU, FAHD1 / Fold change vs veh, FAHD1 / RFU, BDP1 / Fold change vs veh, BDP1 / RFU, LRRCC1 / Fold change vs veh, LRRCC1 / RFU, ARID1A / Fold change vs veh, ARID1A / RFU, ZNF146 / Fold change vs veh, ZNF146 / RFU, ZNF330 / Fold change vs veh, ZNF330 / RFU, GPN3 / Fold change vs veh, GPN3 / RFU, C9orf123 / Fold change vs veh, C9orf123 / RFU, N4BP2L2 / Fold change vs veh, N4BP2L2 / RFU, ARFIP1 / Fold change vs veh, ARFIP1 / RFU, FAM179B / Fold change vs veh, FAM179B / RFU, BCL10 / Fold change vs veh, BCL10 / RFU, UHRF1BP1L / Fold change vs veh, UHRF1BP1L / RFU, BET1 / Fold change vs veh, BET1 / RFU, CNOT2 / Fold change vs veh, CNOT2 / RFU, ZNF268 / Fold change vs veh, ZNF268 / Fold change vs veh, ZNF507 / RFU, DGCR2 / Fold change vs veh, DGCR2 / RFU, WDSUB1 / Fold change vs veh, WDSUB1 / Fold change vs veh, HSP90B1 /// MIR3652 / RFU, ADSS / Fold change vs veh, ADSS / RFU, GK / Fold change vs veh, GK / RFU, ZNF148 / Fold change vs veh, ZNF148 / RFU, TAF9 / Fold change vs veh, TAF9 / RFU, SLC1A5 / Fold change vs veh, SLC1A5 / RFU, SLMO2 / Fold change vs veh, SLMO2 / RFU, ABCC4 / Fold change vs veh, ABCC4 / RFU, LOC101060439 /// RAP1B / Fold change vs veh, LOC101060439 /// RAP1B / RFU, RFX7 / Fold change vs veh, RFX7 / RFU, GTPBP10 / Fold change vs veh, GTPBP10 / RFU, CNEP1R1 / Fold change vs veh, CNEP1R1 / RFU, BIVM-ERCC5 /// ERCC5 / Fold change vs veh, BIVM-ERCC5 /// ERCC5 / RFU, ILF3 / Fold change vs veh, ILF3 / RFU 11762660_at / Fold change /veh 11762660_at / RFU VCAN (11757783_s_at) / Fold change /veh VCAN (11757783_s_at) / RFU DDX43 (11728927_at) / Fold change /veh DDX43 (11728927_at) / RFU KRT8 (11758188_x_at) / Fold change /veh KRT8 (11758188_x_at) / RFU NKD1 (11759106_at) / Fold change /veh NKD1 (11759106_at) / RFU SRD5A1 (11742802_a_at) / Fold change /veh SRD5A1 (11742802_a_at) / RFU TPSAB1 /// TPSB2 (11721975_s_at) / Fold change /veh TPSAB1 /// TPSB2 (11721975_s_at) / RFU GSTM3 (11746129_a_at) / Fold change /veh GSTM3 (11746129_a_at) / RFU IL23R (11737362_x_at) / Fold change /veh IL23R (11737362_x_at) / RFU TMEM51 (11727254_a_at) / Fold change /veh TMEM51 (11727254_a_at) / RFU PIWIL2 (11732686_x_at) / Fold change /veh PIWIL2 (11732686_x_at) / RFU ORM1 (11744905_x_at) / Fold change /veh ORM1 (11744905_x_at) / RFU CCDC152 (11743942_at) / Fold change /veh CCDC152 (11743942_at) / RFU ECM1 (11717891_a_at) / Fold change /veh ECM1 (11717891_a_at) / RFU IL23R (11748794_a_at) / Fold change /veh IL23R (11748794_a_at) / RFU TNFAIP8L3 (11732012_x_at) / Fold change /veh TNFAIP8L3 (11732012_x_at) / RFU MBOAT4 (11741988_at) / Fold change /veh MBOAT4 (11741988_at) / RFU 11764193_at / Fold change /veh 11764193_at / RFU TMEM53 (11763286_at) / Fold change /veh TMEM53 (11763286_at) / RFU MAGEB2 (11727129_at) / Fold change /veh MAGEB2 (11727129_at) / RFU TMEM200A (11744735_a_at) / Fold change /veh TMEM200A (11744735_a_at) / RFU CCDC152 (11751479_a_at) / Fold change /veh CCDC152 (11751479_a_at) / RFU FAM211A (11726209_a_at) / Fold change /veh FAM211A (11726209_a_at) / RFU RGS16 (11746705_a_at) / Fold change /veh RGS16 (11746705_a_at) / RFU VCAN (11755009_s_at) / Fold change /veh VCAN (11755009_s_at) / RFU RHOB (11743442_s_at) / Fold change /veh RHOB (11743442_s_at) / RFU RGS16 (11720943_a_at) / Fold change /veh RGS16 (11720943_a_at) / RFU RGS16 (11720944_at) / Fold change /veh RGS16 (11720944_at) / RFU, VPS4B / Fold change vs veh, VPS4B / RFU, CREB1 / Fold change vs veh, CREB1 / RFU, DNAJC13 / Fold change vs veh, DNAJC13 / RFU, GNAQ / Fold change vs veh, GNAQ / RFU, CDK5R1 / Fold change vs veh, CDK5R1 / RFU, ZRANB3 / Fold change vs veh, ZRANB3 / RFU, CUL4A / Fold change vs veh, CUL4A / RFU, CCNY / Fold change vs veh, CCNY / RFU, UFL1 / Fold change vs veh, UFL1 / RFU, COG3 / Fold change vs veh, COG3 / RFU, DIAPH2 / Fold change vs veh, DIAPH2 / RFU, SKA2 / Fold change vs veh, SKA2 / RFU, AFF3 / Fold change vs veh, AFF3 / RFU, LMF1 / Fold change vs veh, LMF1 / RFU, IPO11 / Fold change vs veh, IPO11 / RFU, DFFB / Fold change vs veh, DFFB / RFU, FOXP1 / Fold change vs veh, FOXP1 / RFU, CARD8 / Fold change vs veh, CARD8 / RFU, STRN3 / Fold change vs veh, STRN3 / RFU, ADK / Fold change vs veh, ADK / RFU, RASSF2 / Fold change vs veh, RASSF2 / RFU, WIPF1 / Fold change vs veh, WIPF1 / RFU, LARP1B / Fold change vs veh, LARP1B / RFU, RASA1 / Fold change vs veh, RASA1 / RFU, RB1 / Fold change vs veh, RB1 / RFU, PPFIA1 / Fold change vs veh, PPFIA1 / RFU, MAT2A / Fold change vs veh, MAT2A / RFU, CCT5 / Fold change vs veh, CCT5 / RFU, WDR92 / Fold change vs veh, WDR92 / RFU, CUX1 / Fold change vs veh, CUX1 / RFU, TTC7A / Fold change vs veh, TTC7A / RFU, TMEM135 / Fold change vs veh, TMEM135 / RFU, DEPTOR / Fold change vs veh, DEPTOR / RFU, CPM / Fold change vs veh, CPM / RFU, DNAJB6 / Fold change vs veh, DNAJB6 / RFU, CACNA2D3 / Fold change vs veh, CACNA2D3 / RFU, DTX4 / Fold change vs veh, DTX4 / RFU, TFCP2 / Fold change vs veh, TFCP2 / RFU, GMCL1 /// GMCL1P1 / Fold change vs veh, GMCL1 /// GMCL1P1 / RFU, AEBP2 / Fold change vs veh, AEBP2 / RFU, SNHG1 /// SNORD22 /// SNORD25 /// SNORD26 /// SNORD27 /// SNORD28 /// SNORD29 /// SNORD31 / Fold change vs veh, SNHG1 /// SNORD22 /// SNORD25 /// SNORD26 /// SNORD27 /// SNORD28 /// SNORD29 /// SNORD31 / Fold change (Aza/veh), C12orf56 (ProbeSet 11735607_a_at) / Fold change (ACY-1035/veh), C12orf56 (ProbeSet 11735607_a_at) / Fold change (Aza/veh), FGFR1OP (ProbeSet 11751329_s_at) / Fold change (ACY-1035/veh), FGFR1OP (ProbeSet 11751329_s_at) / Fold change (Aza/veh), VPS36 (ProbeSet 11739960_a_at) / Fold change (ACY-1035/veh), VPS36 (ProbeSet 11739960_a_at) / RFU SYPL1 (11715823_x_at) / Fold change /veh SYPL1 (11715823_x_at) / RFU IGFBP7 (11715501_s_at) / Fold change /veh IGFBP7 (11715501_s_at) / RFU REEP3 (11722064_at) / Fold change /veh REEP3 (11722064_at) / RFU IGLL1 (11728026_x_at) / Fold change /veh IGLL1 (11728026_x_at): dose or concentration left out as unconfirmed
Conditions: MV-4-11 cells, 48 hours

**Q.** `Nc1ccc(-c2cccs2)cc1NC(=O)c1ccc2c(c1)cc(C1CC1)n2CCN1CCOCC1` [ACY-1035] was tested. Which “RFU SOX15 (11748057_x_at)” value did it give?
**A.** Its value is 11.14 RFU.
